In ChEMBL document CHEMBL4665740, “Discovery of noscapine derivatives as potential β-tubulin inhibitors” (Bioorg Med Chem Lett, 2020):
Activity calls are given as the source filed them. The rule behind the calls is not given here.

Columns and labels:
[1] = target: Tubulin beta; test: Binding affinity to CM5 chip immobilized beta tubulin (unknown origin) assessed as thermodynamic constants by SPR assay; assay type: protein assay, Homo sapiens
[2] = test system: MCF7; test: Cytotoxicity against human MCF7 cells assessed as mortality at 20 uM after 48 hrs by MTT assay; assay type: functional, cell-based
[3] = test system: MCF7; test: Cytotoxicity against human MCF7 cells assessed as mortality at 20 uM after 48 hrs by MTT assay relative to control; assay type: functional

SMILES	Kd [1] [nM]	Activity [2]	Activity [3] [%]
COc1ccc2c(c1OC)C(=O)O[C@@H]2[C@H]1c2c(c(Br)c3c(c2OC)OCO3)CCN1Cc1cn(-c2ccc(Cl)c(Cl)c2)nn1	374.3	Active	–
CCC(O)Cn1cc(CN2CCc3c(Br)c4c(c(OC)c3[C@@H]2[C@H]2OC(=O)c3c2ccc(OC)c3OC)OCO4)nn1 (some centres not stated)	132	Active	–
COc1ccc2c(c1OC)C(=O)O[C@@H]2[C@H]1c2c(c(Br)c3c(c2OC)OCO3)CCN1Cc1cn(-c2ccc(Br)cc2)nn1	36.9	–	60
CCC(O)Cn1cc(CN2CCc3cc4c(c(OC)c3[C@@H]2[C@H]2OC(=O)c3c2ccc(OC)c3OC)OCO4)nn1 (some centres not stated)	–	–	60
COc1ccc2c(c1OC)C(=O)O[C@@H]2[C@H]1c2c(c(Br)c3c(c2OC)OCO3)CCN1Cc1cn(-c2ccc(F)cc2)nn1	–	Active	–
COc1ccc2c(c1OC)C(=O)O[C@@H]2[C@H]1c2c(cc3c(c2OC)OCO3)CCN1Cc1cn(CC(C)(C)O)nn1	–	Active	–
COc1ccc(-n2cc(CN3CCc4c(Br)c5c(c(OC)c4[C@@H]3[C@H]3OC(=O)c4c3ccc(OC)c4OC)OCO5)nn2)cc1OC	–	Active	–
COc1ccc2c(c1OC)C(=O)O[C@@H]2[C@H]1c2c(cc3c(c2OC)OCO3)CCN1Cc1cn(Cc2ccccc2)nn1	133	–	60
COc1ccc2c(c1OC)C(=O)O[C@@H]2[C@H]1c2c(cc3c(c2OC)OCO3)CCN1Cc1cn(-c2ccc(F)cc2)nn1	21.5	Active	–
COc1ccc2c(c1OC)C(=O)O[C@@H]2[C@H]1c2c(cc3c(c2OC)OCO3)CCN1C [NOSCAPINE]	579	–	20
COc1ccc2c(c1OC)C(=O)O[C@@H]2[C@H]1c2c(c(Br)c3c(c2OC)OCO3)CCN1Cc1cn(CC(C)(C)O)nn1	–	Active	–
